Test results reported in ChEMBL document CHEMBL5113545, “Selective Cyclin-Dependent Kinase Inhibitors and Their Application in Cancer Therapy” (ACS Med Chem Lett, 2022).

Target: Cyclin-dependent kinase 2/cyclin E1 (Homo sapiens, UniProt P24941)
Assay: Inhibition of human full length recombinant C-terminal 6His-tagged CDK2/N-terminal GST-tagged cyclin E1 expressed in baculovirus-infected Sf21 cells using 5-FAM- QSPKKG peptide as substrate preincubated with enzyme and ATP for 30 mins followed by substrate addition and measured after 20 hrs by fluorescence- based microfluidic mobility shift assay

| Structure (SMILES) | IC50 |
| --- | --- |
| Cc1cc(CC(=O)Nc2cc([C@H]3CCC[C@@H](OC(=O)NC4(C)CC4)CC3)[nH]n2)on1 | ≤ 100 nM |
| Cc1cc(CC(=O)Nc2cc([C@H]3CC[C@@H](OC(=O)N4CCC4(C)C)C3)[nH]n2)on1 | ≤ 100 nM |
| COc1cc(CC(=O)Nc2cc([C@H]3CC[C@@H](OC(=O)NC(C)C)C3)[nH]n2)ccn1 | ≤ 100 nM |
| CC(C)NC(=O)O[C@@H]1CC[C@H](c2cc(NC(=O)c3ccnc4ncsc34)n[nH]2)C1 | ≤ 100 nM |
| COCc1cc(C(=O)Nc2cc([C@H]3CC[C@@H](OC(=O)N(C)C(C)C)C3)[nH]n2)n(C)n1 | ≤ 100 nM |
| Cc1ncc(CC(=O)Nc2cc([C@H]3CC[C@@H](OC(=O)NC(C)C)C3)[nH]n2)s1 | ≤ 100 nM |
| CC(C)NC(=O)O[C@@H]1CC[C@H](c2cc(NC(=O)Cc3ccccc3S(C)(=O)=O)n[nH]2)C1 | ≤ 100 nM |
| CC(C)NC(=O)O[C@H]1CC[C@@H](c2cc(NC(=O)c3ccnn3C)n[nH]2)C1 | ≤ 100 nM |
| CC(C)NC(=O)O[C@@H]1CC[C@H](c2cc(NC(=O)c3ccnn3C)n[nH]2)C1 | ≤ 100 nM |
| CC(C)NC(=O)O[C@@H]1CC[C@H](c2cc(NC(=O)Cc3ccccc3)n[nH]2)C1 | ≤ 100 nM |
| CC1(NC(=O)O[C@H]2CC[C@@H](c3cc(NC(=O)Cc4ccccc4)n[nH]3)C2)CC1 | ≤ 100 nM |
| CC1(NC(=O)O[C@@H]2CC[C@H](c3cc(NC(=O)Cc4ccccc4)n[nH]3)C2)CC1 | ≤ 100 nM |
